Data: US20140259191A1, “FISH ANESTHETIC AND METHOD” (AQUA-MOR TECHNOLOGIES LTD., priority 2011, published 2014)

System: common carp
Assay: Five-hour sedation of common carp, linalool versus 2-phenoxyethanol
Format: in vivo
Details: linalool 40 ppm, 2-PE 200 ppm; for Number of fish exhibiting loss of upright position: 26° C.
Procedure: 2-Phenoxyethanol (2-PE) is used to sedate fish in vaccinations procedures for relatively long periods of time (3 hours). 35 common carp were placed in each of two 60-liter tanks containing water at 26° C. Into one tank was added linalool (in a formulation as described in Example 28) to a concentration of 40 ppm; into the other tank was added 2-PE to a concentration of 200 ppm. Sedation of fish was determined by observation of loss of upright position, operculum movement and response to stimulus (handling). Total exposure time was five hours, at the end of which the fish were transferred 60-liter recovery tanks containing untreated water.

`OCCOc1ccccc1` [2-phenoxyethanol, 2-Phenoxyethanol, reference compound] was tested, and the “Number of fish exhibiting loss of upright position” value (35 common carp per tank, time 10:30 (start), aeration) was 0, the “Number of fish exhibiting loss of upright position” value (35 common carp per tank, time 11:00 (start 10:30), no aeration) was 1 and the “Number of fish exhibiting loss of upright position” value (35 common carp per tank, time 11:40 (start 10:30), no aeration) was 2. For the same compound, the “Number of fish exhibiting loss of upright position” value (35 common carp per tank, time 12:35 (start 10:30), no aeration) was 2, the “Number of fish exhibiting loss of upright position” value (35 common carp per tank, time 13:35 (start 10:30), no aeration) was 2 and the “Number of fish exhibiting loss of upright position” value (35 common carp per tank, time 14:30 (start 10:30), aeration) was 2. The “Number of fish exhibiting loss of upright position” value (35 common carp per tank, time 15:30 (start 10:30), aeration) was “None”, the “survival at transfer to recovery tank” value (35 common carp per tank, after five hours exposure) was “All alive” and the “reflex response over the 5 hours of exposure” value (common carp) was “reduced substantially from the beginning of the trial and increased with the passage of time until the end of the trial”. For the same compound, the “sedative effect between 3 and 5 hours of exposure” value (common carp) was “reduced”, the “recovery after placement in a recovery tank” value (common carp, after five hours exposure) was “recovered quickly in few minutes and did not show signs of stress” and the “response to external stimulation during the first 3 hours” value (common carp, sedation levels enabled handling) was “did not respond to external stimulation”.
